# Results from publication PMC7956620 (Molecules, 2021).
# Read-outs that look alike come from different tables or passages of the source.
# Target: T1, human 5-HT3A receptor (Homo sapiens, UniProt P46098)
# T1 construct: host or cells: Xenopus laevis oocytes injected with in vitro transcribed mRNA
# T1 sequence (P46098 24-478): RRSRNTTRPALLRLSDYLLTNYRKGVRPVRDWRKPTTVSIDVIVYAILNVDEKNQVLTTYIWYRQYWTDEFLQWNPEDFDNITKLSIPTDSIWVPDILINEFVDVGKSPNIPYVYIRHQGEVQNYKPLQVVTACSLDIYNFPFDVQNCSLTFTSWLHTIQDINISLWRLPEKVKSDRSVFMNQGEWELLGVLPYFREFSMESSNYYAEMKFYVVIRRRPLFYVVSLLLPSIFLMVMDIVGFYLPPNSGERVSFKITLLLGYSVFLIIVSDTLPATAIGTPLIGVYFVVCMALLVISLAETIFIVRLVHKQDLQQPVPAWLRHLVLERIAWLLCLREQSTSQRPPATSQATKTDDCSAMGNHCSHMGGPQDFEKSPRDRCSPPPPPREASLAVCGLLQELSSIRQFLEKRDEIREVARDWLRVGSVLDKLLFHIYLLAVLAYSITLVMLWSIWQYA
# Test: cell-based
# Type: cell-based
# Details: for inhibition of voltage ramp current activated by 5-HT: 100 µM 5-HT and EC
# Procedure: Human 5-hydroxytryptamine (serotonin) receptor 3A cDNA (Genebank number: BC004453) was obtained from OriGene (Rockville, MD, USA). Figure 1A represents the chemical structure of two ergot alkaloids, EG and EC, obtained from Sigma-Aldrich (St. Louis, MO, USA). These ergot alkaloids were diluted in bath solution after dissolving in dimethyl sulfoxide (DMSO) for use as stock solutions. The final treatment concentration of DMSO was less than 0.01%. Xenopus laevis frogs were obtained from the Korean Xenopus Resource Center for Research (KXRCR000001, Chuncheon, Gangwondo, Korea), and other agents were purchased from Sigma-Aldrich.
# To isolate oocytes, female Xenopus laevis were put into a container filled with ice and left for about one hour. When the blood vessels contracted and fell into a state similar to hibernation, the abdomen was incised, and the ovaries were removed and cut into small pieces in Ca^2+-free OR2 solution (82.5 mM NaCl, 2.5 mM KCl, 1 mM MgCl2, and 5 mM HEPES, pH 7.4) with 2 mg/mL collagenase. After a 2 h agitation to digest the follicle membranes, isolated oocytes in stages Ⅴ and Ⅵ were selected and washed repeatedly. The selected oocytes were maintained in ND96 incubation solution (96 mM NaCl, 2 mM KCl, 1.8 mM CaCl2, 1 mM MgCl2, 5 mM HEPES, 2.5 mM sodium pyruvate, and 50 µg/mL gentamycin, pH 7.4) at 16–18 °C. The solution containing the oocytes was changed twice a day and stored in a shaking incubator. Under the microscope, the end of a glass capillary was broken and fitted with a 20 µm diameter needle and filled with mineral oil, discharging air bubbles from the tip. When the Xenopus oocytes were ready for injection, 50 ng of mRNA was injected with a nanoliter injector (Drummond Scientific, Vernon Hills, IL, USA). The recording was started after two days of sufficient shaking incubation in ND96 solution. Surgery, microinjections, and the other handling of Xenopus laevis followed the standard protocols.
# The oocytes in which mRNA was expressed during the incubation period allowed for the estimation of channel or receptor properties for observing drug and ligand potential interactions using a two-electrode voltage clamp (OC-725C; Warner Instruments, Hamden, CT, USA) and Digidata (1322A; Molecular Devices, Sunnyvale, CA, USA). The two-electrode voltage clamp had voltage and current electrodes that stably maintained the potential and delivered the transmembrane potential and high current. […] A computer transferred the converted output amplitude of the voltage clamp amplifiers to an input digital converter using pClamp 10 software (Axon Instruments, Union City, CA, USA). The voltage and current electrodes were filled with 3 M KCl (0.3–0.7 MΩ) and analyzed at a −80 mV holding potential. The oocytes were placed in the chamber and exposed to a ND96 solution at a flow rate of 2 mL per minute. In the electrophysiological experiments, the voltage ramp recording was performed at room temperature, and a current from −80 to +60 mV was applied to determine the current and voltage relationships. Inward peak traces of the 5-HT3A receptor and voltage ramp traces were converted to a value through Clampfit 9.0 (Molecular Devices, San Jose, CA, USA).
# In the experiments, all data were represented as the mean ± SEM (standard error of the mean) of the 5-HT-stimulated inward peak in the 5-HT3A receptors. […] All curves plotted through the Hill equation were generated using Origin Pro 7.0 (OriginLab, Northampton, MA, USA). The significance of differences between the control and chanoclavine treatment was determined according to the p-value in the Student’s t-test. p-values of less than 0.05 were considered statistically significant.
smiles,measurement,setting,value
CN[C@@H]1Cc2c[nH]c3cccc(c23)[C@H]1/C=C(\C)CO [chanoclavine],inhibition at 10 µM,"10 µM compound with 100 µM 5-HT, −80 mV, read-out: inhibition of I5-HT",4 ± 3.8%
same,inhibition at 30 µM,"30 µM compound with 100 µM 5-HT, −80 mV, read-out: inhibition of I5-HT",7.9 ± 4.1%
same,inhibition at 100 µM,"100 µM chanoclavine, wild type, read-out: Inhibition Percentage (%)",42.5 ± 5.7%
same,inhibition at 100 µM,"100 µM compound with 100 µM 5-HT, −80 mV, read-out: inhibition of I5-HT",42.5 ± 9.7%
same,inhibition at 200 µM,"200 µM compound with 100 µM 5-HT, −80 mV, read-out: inhibition of I5-HT",61.6 ± 6.1%
same,inhibition at 300 µM,"300 µM compound with 100 µM 5-HT, −80 mV, read-out: inhibition of I5-HT",75 ± 4.5%
same,Imax of normalized 5-HT concentration-response current,"5-HT 1 to 100 µM with 30 µM EC, −80 mV",94.6 ± 24.4
same,Imax of normalized 5-HT concentration-response current,"5-HT 1 to 100 µM with 100 µM EC, −80 mV",60 ± 2.2
same,inhibition of voltage ramp current activated by 5-HT,+30 mV,47.9 ± 3.4%
same,inhibition of voltage ramp current activated by 5-HT,+60 mV,49.5 ± 4%
same,maximum inhibition (Imax),"Hill fit, co-application with 100 µM 5-HT, −80 mV",83.6 ± 12.6%
same,IC50,"co-application with 5-HT, read-out: half-maximal inhibitory response concentration (IC50) for block of 5-HT-induced 5-HT3A response",107 µM
same,current relative to the control group,competing at the same rate as 5-HT,about 50%
same,manner of regulation of 5-HT3A-receptor channel activity,"varied 5-HT concentration, fixed 30 or 100 µM chanoclavine",competitive
same,inhibition of voltage ramp current activated by 5-HT,−30 mV,40.9 ± 1.1%
same,effect of compound alone (without 5-HT),"−80 mV holding potential, data not shown",no change
